This is an account of results in PubChem BioAssay AID330 (DTP/NCI, 2004).

Where “and” joins values, the source holds several entries; their conditions need not be identical. Equal values may be shown once. Toxic doses and inconclusive results are not listed.

The experiment deals with P388 leukemia ip, CD2F1 mice, survival T/C. Briefly: NCI In Vivo Anticancer Drug Screen. Data for tumor model P388 Leukemia (intraperitoneal) in CD2F1 (CDF1) mice. Conditions: endpoint: median survival time, higher = longer survival. Put shortly: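 Mice carrying the transplanted tumor received test compound or vehicle. Survival was recorded in each group, and the value is the treated-group measurement divided by that of the vehicle-treated control group.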

Where [1] appears, read: dose: 25.0 mg/kg/injection, schedule: Q01DX005 (ip), vehicle: saline with Tween-80.
[2] abbreviates: dose: 50.0 mg/kg/injection, schedule: Q01DX005 (ip), vehicle: saline with Tween-80.
Setting [3] is: dose: 100.0 mg/kg/injection, schedule: Q01DX005 (ip), vehicle: saline with Tween-80.
The mark [4] stands for this setting: dose: 200.0 mg/kg/injection, schedule: Q01DX005 (ip), vehicle: saline with Tween-80.
[5] abbreviates: dose: 100.0 mg/kg/injection, schedule: Q01DX001 (ip), vehicle: saline with Tween-80.
[6] abbreviates: dose: 200.0 mg/kg/injection, schedule: Q01DX001 (ip), vehicle: saline with Tween-80.
[7] abbreviates: dose: 400.0 mg/kg/injection, schedule: Q01DX001 (ip), vehicle: saline with Tween-80.
[8] abbreviates: dose: 100.0 mg/kg/injection, schedule: Q01DX001 (ip), vehicle: Klucel (hydroxypropylcellulose) (HPC).
Where [9] appears, read: dose: 200.0 mg/kg/injection, schedule: Q01DX001 (ip), vehicle: Klucel (hydroxypropylcellulose) (HPC).
The mark [10] stands for this setting: dose: 400.0 mg/kg/injection, schedule: Q01DX001 (ip), vehicle: Klucel (hydroxypropylcellulose) (HPC).
Setting [11] is: dose: 100.0 mg/kg/injection, schedule: Q04DX002 (ip), vehicle: saline with Tween-80.
Where [12] appears, read: dose: 200.0 mg/kg/injection, schedule: Q04DX002 (ip), vehicle: saline with Tween-80.
[13] abbreviates: dose: 400.0 mg/kg/injection, schedule: Q04DX002 (ip), vehicle: saline with Tween-80.
Setting [14] is: dose: 50.0 mg/kg/injection, schedule: Q01DX009 (ip), vehicle: Klucel (hydroxypropylcellulose) (HPC).
Where [15] appears, read: dose: 100.0 mg/kg/injection, schedule: Q01DX009 (ip), vehicle: Klucel (hydroxypropylcellulose) (HPC).
Where [16] appears, read: dose: 200.0 mg/kg/injection, schedule: Q01DX009 (ip), vehicle: Klucel (hydroxypropylcellulose) (HPC).
[17] abbreviates: dose: 1.56 mg/kg/injection, schedule: Q01DX009 (ip), vehicle: other.
Setting [18] is: dose: 3.13 mg/kg/injection, schedule: Q01DX009 (ip), vehicle: other.
The mark [19] stands for this setting: dose: 6.25 mg/kg/injection, schedule: Q01DX009 (ip), vehicle: other.
Setting [20] is: dose: 12.5 mg/kg/injection, schedule: Q01DX009 (ip), vehicle: other.
[21] abbreviates: dose: 25.0 mg/kg/injection, schedule: Q01DX009 (ip), vehicle: other.
Setting [22] is: dose: 50.0 mg/kg/injection, schedule: Q01DX009 (ip), vehicle: other.
[23] abbreviates: dose: 100.0 mg/kg/injection, schedule: Q01DX009 (ip), vehicle: other.

For `CN1C(=O)/C(=C\c2ccccc2)N=C(c2ccccc2)c2cc(Cl)ccc21`, the T/C is 110 % of control under setting [1], 96 % of control under setting [2] and 91 % of control under setting [3].

For `CS(=O)(=O)NCCSSCCNS(C)(=O)=O`, the T/C was 106 % of control under setting [2], 103 % of control under setting [3] and 112 % of control under setting [4].

Take `COc1ccc2c(c1)CC[C@@H]1[C@@H]2CC[C@]2(C)[C@@H](OCCOS(=O)(=O)c3ccc(C)cc3)CC[C@@H]12`: the T/C is 99 % of control under setting [5], 101 % of control under setting [6] and 101 % of control under setting [7].

Take `COC(=O)C(C(=O)OC)=C(NS(=O)(=O)c1ccc(C)cc1)SC`: the T/C runs as follows: (dose: 12.5 mg/kg/injection, schedule: Q04DX002 (ip), vehicle: saline with Tween-80) 100 % of control; (dose: 25.0 mg/kg/injection, schedule: Q04DX002 (ip), vehicle: saline with Tween-80) 100 % of control; (dose: 50.0 mg/kg/injection, schedule: Q04DX002 (ip), vehicle: saline with Tween-80) 109 % of control.

With `Cc1cn(CCCCCOc2c3ccoc3cc3oc(=O)ccc23)c(=O)[nH]c1=O`, the T/C is 92 % of control under setting [8], 90 % of control under setting [9] and 87 % of control under setting [10].

In the case of `CCOC(=O)C1C(=O)N2C(=O)C(NC(C)=O)=C(O)C2C1c1ccccc1` (centres undefined), the T/C was 100 % of control under setting [11], 99 % of control under setting [12] and 100 % of control under setting [13].

As for `CC(C)NC(=O)OCc1c(COC(=O)NC(C)C)c(-c2ccc(F)c(F)c2)n2c1CCC2`, the T/C reads like this: (dose: 3.13 mg/kg/injection, schedule: Q01DX009 (ip), vehicle: distilled water + Tween-80) 151 % of control; (dose: 6.25 mg/kg/injection, schedule: Q01DX009 (ip), vehicle: distilled water + Tween-80) 160 % of control; (dose: 12.5 mg/kg/injection, schedule: Q01DX009 (ip), vehicle: distilled water + Tween-80) 172 % of control and 178 % of control; (dose: 25.0 mg/kg/injection, schedule: Q01DX009 (ip), vehicle: distilled water + Tween-80) 123 % of control and 211 % of control; (dose: 50.0 mg/kg/injection, schedule: Q01DX009 (ip), vehicle: distilled water + Tween-80) 109 % of control and 92 % of control.

Regarding `C/C(Cl)=C\c1nc2ccccc2nc1Cl`, the T/C runs as follows: under setting [8], 100 % of control; under setting [9], 92 % of control; under setting [10], 92 % of control.

Consider `O=C(c1ccccc1)C12CCC3CC(CC(C3)C1)C2`, for which the T/C under setting [14] was 100 % of control, the T/C under setting [15] is 99 % of control and the T/C under setting [16] was 100 % of control.

Regarding `CCOc1cccc2c1C(=O)c1c(OCC)c3c(c(OCC)c1C2=O)CC(O)(C(C)=O)CC3O` (centres undefined), the T/C under setting [17] is 99 % of control; the T/C under setting [18] is 102 % of control; the T/C under setting [19] is 93 % of control; the T/C under setting [20] is 96 % of control; the T/C under setting [21] was 90 % of control.

Regarding `CCCCCCn1c(Cl)c(C(=O)O)c2ccccc21`, the T/C runs as follows: under setting [11], 99 % of control; under setting [12], 97 % of control; under setting [13], 95 % of control.

As to `Cc1cc([N+](=O)[O-])cc(Br)c1N`, the T/C was 100 % of control under setting [5], 95 % of control under setting [6] and 95 % of control under setting [7].

As for `NC(=S)N/N=C/c1c(Cl)nc2n1CCS2`, the T/C reads like this: under setting [8], 94 % of control; under setting [9], 93 % of control; under setting [10], 92 % of control.

In the case of `CN(C)CNC(=O)c1ccccc1`, the T/C by setting is: (dose: 1.25 mg/kg/injection, schedule: Q01DX009 (ip), vehicle: water) 99 % of control; (dose: 2.5 mg/kg/injection, schedule: Q01DX009 (ip), vehicle: water) 121 % of control; (dose: 5.0 mg/kg/injection, schedule: Q01DX009 (ip), vehicle: water) 99 % of control; (dose: 10.0 mg/kg/injection, schedule: Q01DX009 (ip), vehicle: water) 100 % of control; (dose: 20.0 mg/kg/injection, schedule: Q01DX009 (ip), vehicle: water) 99 % of control.

`O=S(=O)(Cc1cccc(C(F)(F)F)c1)c1nc2cccnc2s1`: the T/C (dose: 50.0 mg/kg/injection, schedule: Q01DX009 (ip), vehicle: saline with Tween-80) was 103 % of control; the T/C (dose: 100.0 mg/kg/injection, schedule: Q01DX009 (ip), vehicle: saline with Tween-80) is 103 % of control; the T/C (dose: 200.0 mg/kg/injection, schedule: Q01DX009 (ip), vehicle: saline with Tween-80) was 101 % of control.

For the compound `COc1ccc(C(C)=O)cc1OC`, the T/C was 100 % of control (dose: 100.0 mg/kg/injection, schedule: Q04DX003 (ip), vehicle: saline); 100 % of control (dose: 200.0 mg/kg/injection, schedule: Q04DX003 (ip), vehicle: saline); 100 % of control (dose: 400.0 mg/kg/injection, schedule: Q04DX003 (ip), vehicle: saline).

On to `COc1ccc(/C=N\Nc2cc(C)nc3ccc(C4CCCCC4)cc23)c2ccccc12`, for which the T/C by setting is: (dose: 60.0 mg/kg/injection, schedule: Q01DX005 (ip), vehicle: saline with Tween-80) 99 % of control; (dose: 120.0 mg/kg/injection, schedule: Q01DX005 (ip), vehicle: saline with Tween-80) 104 % of control; (dose: 240.0 mg/kg/injection, schedule: Q01DX005 (ip), vehicle: saline with Tween-80) 93 % of control.

Take `CCCCCCCCCC[N+](C)(C)CCO`: the T/C reads like this: (dose: 12.5 mg/kg/injection, schedule: Q01DX009 (ip), vehicle: saline) 118 % of control; (dose: 25.0 mg/kg/injection, schedule: Q01DX009 (ip), vehicle: saline) 109 % of control; (dose: 50.0 mg/kg/injection, schedule: Q01DX009 (ip), vehicle: saline) 116 % of control.

Regarding `O=C1c2ccccc2C(=O)N1CC[P+](Cc1ccccc1)(Cc1ccccc1)Cc1ccccc1`, the T/C was 105 % of control (dose: 0.78 mg/kg/injection, schedule: Q01DX009 (ip), vehicle: other); 97 % of control under setting [17]; 97 % of control under setting [18]; 106 % of control under setting [19]; 99 % of control and 90 % of control under setting [20]; 112 % of control and 91 % of control under setting [21]. Also, the T/C is 105 % of control under setting [22] and 89 % of control under setting [23].

With `C1=Cc2ccccc2CS1`, the T/C reads like this: under setting [21], 106 % of control; under setting [22], 116 % of control; under setting [23], 108 % of control; (dose: 200.0 mg/kg/injection, schedule: Q01DX009 (ip), vehicle: other) 88 % of control; (dose: 400.0 mg/kg/injection, schedule: Q01DX009 (ip), vehicle: other) 88 % of control.

Consider `C=CCN1C(=O)NC(=O)C(c2ccccc2)C1=O` (centres undefined), for which the T/C under setting [14] is 98 % of control, the T/C under setting [15] was 100 % of control and the T/C under setting [16] was 92 % of control.

Regarding `c1ccc2c(SCCCCCCSc3c4ccccc4nc4ccccc34)c3ccccc3nc2c1`, the T/C by setting is: (dose: 60.0 mg/kg/injection, schedule: Q01DX005 (ip), vehicle: Klucel (hydroxypropylcellulose) (HPC)) 90 % of control; (dose: 120.0 mg/kg/injection, schedule: Q01DX005 (ip), vehicle: Klucel (hydroxypropylcellulose) (HPC)) 86 % of control.

Regarding `O=[N+]([O-])c1ccc(N/N=C\c2c(Cl)n(-c3ccccc3)c3ccccc23)c([N+](=O)[O-])c1`, the T/C reads like this: under setting [1], 106 % of control; under setting [2], 100 % of control and 105 % of control; under setting [3], 109 % of control and 117 % of control; (dose: 100.0 mg/kg/injection, schedule: Q04DX003 (ip), vehicle: saline with Tween-80) 90 % of control; under setting [4], 109 % of control and 114 % of control; (dose: 400.0 mg/kg/injection, schedule: Q04DX003 (ip), vehicle: saline with Tween-80) 88 % of control.
